In ChEMBL document CHEMBL4732153, “Phenyl 4-(2-oxopyrrolidin-1-yl)benzenesulfonates and phenyl 4-(2-oxopyrrolidin-1-yl)benzenesulfonamides as new antimicrotubule agents targeting the colchicine-binding site” (Eur J Med Chem, 2021):
The source made the active and inactive calls. The calls are words filed in the database; no cut-off is given here.

Columns and labels:
[1] = system: HT-1080; assay: Antiproliferative activity against human HT-1080 cells assessed as reduction in cell viability measured after 48 hrs by sulforhodamine B assay; type: functional, cell-based; conditions: HT-1080, 48 h
[2] = system: HT-29; assay: Antiproliferative activity against human HT-29 cells assessed as reduction in cell viability measured after 48 hrs by sulforhodamine B assay; type: functional, cell-based; conditions: HT-29, 48 h
[3] = system: M21; assay: Antiproliferative activity against human M21 cells assessed as reduction in cell viability measured after 48 hrs by sulforhodamine B assay; type: functional, cell-based; conditions: M21, 48 h
[4] = system: MCF7; assay: Antiproliferative activity against human MCF7 cells assessed as reduction in cell viability measured after 48 hrs by sulforhodamine B assay; type: functional, cell-based; conditions: MCF7, 48 h
[5] = system: M21; assay: Cell cycle arrest in human M21 cells assessed as accumulation at SubG1 phase at 2 to 5 times IC50 measured after 24 hrs by DAPI staining based flow cytometry (reference value: 5%); type: functional
[6] = system: M21; assay: Cell cycle arrest in human M21 cells assessed as accumulation at G0/G1 phase at 2 to 5 times IC50 measured after 24 hrs by DAPI staining based flow cytometry (reference value: 65.5%); type: functional
[7] = system: M21; assay: Cell cycle arrest in human M21 cells assessed as accumulation at S phase at 2 to 5 times IC50 measured after 24 hrs by DAPI staining based flow cytometry (reference value: 16.1%); type: functional
[8] = system: M21; assay: Cell cycle arrest in human M21 cells assessed as accumulation at G2/M phase at 2 to 5 times IC50 measured after 24 hrs by DAPI staining based flow cytometry (reference value: 13.4%); type: functional
[9] = biological target: T1, Tubulin (Homo sapiens) (UniProt P68371+Q9H4B7+P0DPH7+P68366+Q13509+Q71U36+P04350+Q3ZCM7+P07437+P68363+Q9BQE3+Q6PEY2+Q13885+Q9BVA1+Q9BUF5); assay: Disruption of microtubule polymerization in human M21 cells at 5 times IC50 measured after 24 hrs by DAPI staining based immunofluorescence microscopic analysis; type: cell-based
[10] = biological target: T1, Tubulin (Homo sapiens); assay: Disruption of microtubule polymerization in human M21 cells assessed as induction of mitotic abnormalities at 5 times IC50 measured after 24 hrs by DAPI staining based immunofluorescence microscopic analysis; type: cell-based
[11] = biological target: Tubulin beta (Homo sapiens) (UniProt P68371+Q9H4B7+Q13509+P04350+Q3ZCM7+P07437+Q13885+Q9BVA1+Q9BUF5+A6NNZ2); assay: Inhibition of EBI binding to colchicine-binding site of beta-tubulin in human M21 cells at 100 to 1000 times IC50 preincubated for 2 hrs followed by EBI addition and measured after 1.5 hrs by Western blot analysis; type: cell-based; conditions: time 3.5 hrs
[12] = system: M21; assay: Cell cycle arrest in human M21 cells assessed as accumulation at SubG1 phase at 11 nM measured after 24 hrs by DAPI staining based flow cytometry (reference value: 5%); type: functional
[13] = system: M21; assay: Cell cycle arrest in human M21 cells assessed as accumulation at G0/G1 phase at 11 nM measured after 24 hrs by DAPI staining based flow cytometry (reference value: 65.5%); type: functional
[14] = system: M21; assay: Cell cycle arrest in human M21 cells assessed as accumulation at S phase at 11 nM measured after 24 hrs by DAPI staining based flow cytometry (reference value: 16.1%); type: functional
[15] = system: M21; assay: Cell cycle arrest in human M21 cells assessed as accumulation at G2/M phase at 11 nM measured after 24 hrs by DAPI staining based flow cytometry (reference value: 13.4%); type: functional
[16] = species: Sus scrofa; assay: Inhibition of porcine brain tubulin polymerization at 15 uM measured after 60 mins by fluorescence assay
[17] = Solubility of compound in DMSO at 3 uM; type: physicochemical
[18] = species: Sus scrofa; assay: Inhibition of porcine brain tubulin polymerization at 3 uM measured after 60 mins by fluorescence assay
[19] = Toxicity in chick embryo assessed as death at 10 ug, iv incubated for 7 days relative to control; type: organism-based; conditions: in vivo, at 10 µg, time 7 day, read-out: Activity
[20] = Solubility of compound in DMSO at 15 uM; type: physicochemical
[21] = Toxicity in chick embryo assessed as death at 1 ug, iv incubated for 7 days relative to control; type: organism-based; conditions: in vivo, at 1 µg, time 7 day, read-out: Activity
[22] = Solubility of compound in DMSO at 30 uM; type: physicochemical
[23] = species: Sus scrofa; assay: Inhibition of porcine brain tubulin polymerization at 30 uM measured after 60 mins by fluorescence assay
[24] = Toxicity in chick embryo assessed as death at 20 ug, iv incubated for 7 days relative to control; type: organism-based; conditions: in vivo, at 20 µg, time 7 day, read-out: Activity

Row | Compound | IC50 [1] [nM] | IC50 [2] [nM] | IC50 [3] [nM] | IC50 [4] [nM] | Activity [5] [%] | Activity [6] [%] | Activity [7] [%] | Activity [8] [%] | also measured
1 | COc1ccc(NS(=O)(=O)c2ccc(N3CCCC3=O)cc2)cc1OC | 2250 | 890 | 5100 | 2600 |  |  |  |  | 
2 | O=C1CCCN1c1ccc(S(=O)(=O)Nc2ccccc2)cc1 | 4900 | 3400 | 5600 | 2800 |  |  |  |  | 
3 | O=C1CCCN1c1ccc(S(=O)(=O)Oc2cccc(Cl)c2)cc1 | 180 | 120 | 110 | 140 |  |  |  |  | 
4 | COc1cc(OS(=O)(=O)c2ccc(N3CCCC3=O)cc2)cc(OC)c1OC | 11 | 16 | 13 | 17 | 3.8 | 8.3 | 6.1 | 81.8 | Activity [9]: Active; Activity [10]: Active; Inhibition of EBI binding (active/inactive) [11]: Active
5 | COc1ccc(/C=C\c2cc(OC)c(OC)c(OC)c2)cc1O [COMBRETASTATIN A4] | 2.2 | 5.1 | 2.2 | 1.9 |  |  |  |  | Activity [12]: 4.1%; Activity [13]: 9.2%; Activity [14]: 7.2%; Activity [15]: 79.5%; inhibition [16]: Active; Inhibition of EBI binding (active/inactive) [11]: Active
6 | COc1cccc(NS(=O)(=O)c2ccc(N3CCCC3=O)cc2)c1 | 1300 | 860 | 940 | 1100 |  |  |  |  | 
7 | O=C1CCCN1c1ccc(S(=O)(=O)Nc2cccc(I)c2)cc1 | 860 | 390 | 330 | 600 | 6.8 | 11.2 | 7.8 | 74.2 | Activity [9]: Active; Activity [10]: Active; Inhibition of EBI binding (active/inactive) [11]: Active
8 | COc1ccc(OS(=O)(=O)c2ccc(N3CCCC3=O)cc2)cc1OC | 590 | 690 | 650 | 290 |  |  |  |  | 
9 | CC(C)c1ccccc1NS(=O)(=O)c1ccc(N2CCCC2=O)cc1 | 21000 | 12000 | 9900 | 16000 |  |  |  |  | 
10 | COc1ccccc1NS(=O)(=O)c1ccc(N2CCCC2=O)cc1 | 3200 | 2400 | 3000 | 1800 |  |  |  |  | 
11 | COc1cccc(OS(=O)(=O)c2ccc(N3CCCC3=O)cc2)c1 | 190 | 120 | 120 | 100 |  |  |  |  | 
12 | O=C1CCCN1c1ccc(S(=O)(=O)Nc2cccc(Cl)c2)cc1 | 680 | 680 | 770 | 560 | 10.6 | 13.7 | 7.9 | 67.8 | 
13 | O=C1CCCN1c1ccc(S(=O)(=O)Nc2cccc(Br)c2)cc1 | 1300 | 590 | 950 | 830 |  |  |  |  | 
14 | O=C1CCCN1c1ccc(S(=O)(=O)Oc2cc(Br)cc(Br)c2)cc1 | 11 | 10 | 8.7 | 11 | 3.9 | 9.4 | 7 | 79.7 | Activity [9]: Active; Activity [10]: Active; solubility [17]: Soluble; inhibition [18]: Active; Inhibition of EBI binding (active/inactive) [11]: Active; mortality at 168 h [19]: 18%
15 | O=C1CCCN1c1ccc(S(=O)(=O)Nc2cccc(F)c2)cc1 | 840 | 5400 | 2300 | 680 |  |  |  |  | 
16 | O=C1CCCN1c1ccc(S(=O)(=O)Nc2cc(Br)cc(Br)c2)cc1 | 590 | 390 | 280 | 520 | 4.2 | 8.3 | 6.3 | 81.2 | Activity [9]: Active; Activity [10]: Active; solubility [17]: Soluble; inhibition [18]: Active; Inhibition of EBI binding (active/inactive) [11]: Active; mortality at 168 h [19]: 25%

Row | Compound | IC50 [1] [nM] | IC50 [2] [nM] | IC50 [3] [nM] | IC50 [4] [nM] | Activity [5] [%] | Activity [6] [%] | Activity [7] [%] | Activity [8] [%] | also measured
17 | O=C1CCCN1c1ccc(S(=O)(=O)Oc2cccc(I)c2)cc1 | 40 | 59 | 88 | 22 | 4.3 | 7.8 | 6.5 | 81.4 | 
18 | COc1ccc(NS(=O)(=O)c2ccc(N3CCCC3=O)cc2)cc1 | 8500 | 4800 | 7500 | 4600 |  |  |  |  | 
19 | O=C1CCCN1c1ccc(S(=O)(=O)Oc2ccccc2)cc1 | 920 | 480 | 460 | 650 |  |  |  |  | 
20 | O=C1CCCN1c1ccc(S(=O)(=O)Nc2ccc(-c3ccccc3)cc2)cc1 | 8800 | 5400 | 4700 | 7000 |  |  |  |  | 
21 | CC(C)c1ccccc1OS(=O)(=O)c1ccc(N2CCCC2=O)cc1 | 840 | 780 | 910 | 500 |  |  |  |  | 
22 | O=C1CCCN1c1ccc(S(=O)(=O)Oc2ccccc2-c2ccccc2)cc1 | 370 | 350 | 190 | 210 |  |  |  |  | 
23 | COc1cc(NS(=O)(=O)c2ccc(N3CCCC3=O)cc2)cc(OC)c1 | 990 | 1300 | 390 | 690 | 4.9 | 43.1 | 9.8 | 42.2 | 
24 | O=C1CCCN1c1ccc(S(=O)(=O)Oc2cccc(Br)c2)cc1 | 80 | 60 | 40 | 60 | 13.3 | 24 | 9.6 | 53.1 | 
25 | COc1ccc(OS(=O)(=O)c2ccc(N3CCCC3=O)cc2)cc1 | 8500 | 4800 | 7500 | 4600 |  |  |  |  | 
26 | O=C1CCCN1c1ccc(S(=O)(=O)Nc2ccccc2-c2ccccc2)cc1 | 1200 | 730 | 430 | 960 | 3 | 59.8 | 12.1 | 25.1 | 
27 | COc1cc(NS(=O)(=O)c2ccc(N3CCCC3=O)cc2)cc(OC)c1OC | 130 | 80 | 56 | 88 | 3.9 | 8.2 | 7.5 | 80.4 | solubility [20]: Soluble; Activity [9]: Active; Activity [10]: Active; inhibition [16]: Active; Inhibition of EBI binding (active/inactive) [11]: Active; mortality at 168 h [21]: 8%
28 | COc1cc(OC)cc(OS(=O)(=O)c2ccc(N3CCCC3=O)cc2)c1 | 26 | 39 | 12 | 21 | 12.1 | 32.7 | 9.6 | 45.6 | Activity [9]: Active; Activity [10]: Active; solubility [22]: Soluble; inhibition [23]: Active; Inhibition of EBI binding (active/inactive) [11]: Active; mortality at 168 h [24]: 18%
29 | O=C1CCCN1c1ccc(S(=O)(=O)Oc2ccc(-c3ccccc3)cc2)cc1 | 2600 | 2900 | 2300 | 1700 |  |  |  |  | 
30 | COc1ccccc1OS(=O)(=O)c1ccc(N2CCCC2=O)cc1 | 1300 | 1200 | 1300 | 890 |  |  |  |  | 
31 | O=C1CCCN1c1ccc(S(=O)(=O)Oc2cccc(F)c2)cc1 | 810 | 310 | 300 | 370 |  |  |  |  | 
